How the values were obtained:
[1] = system: HiBiT-tagged MYB protein; assay: HiBiT protein abundance assay, MYB (K562 HiBiT knock-in cells); assay type: cell-based, human; settings: 24 hours
Summary of the method: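 Luminescent readout of HiBiT-tagged endogenous protein after lysis, following 24 h compound exposure of knock-in K562 lines at 37 °C. Ten 3-fold concentrations from 10 μM final, DMSO ≤0.25%. Four-parameter logistic fit of normalized response gives concentration halving abundance (IC50).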

[2] = system: Target C; assay: HiBiT protein abundance assay, Target C (K562 HiBiT knock-in cells); assay type: cell-based, human; settings: 24 hours
Summary of the method: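 Protein abundance read by HiBiT lytic luminescence after 24 h compound exposure (37 °C) of knock-in K562 cells, 10000 cells/well in IMDM+1% FBS. Dosing: 10 points, 3-fold, top 10 μM final, ≤0.25% DMSO. Four-parameter logistic fit gave concentration reducing abundance to 50% of untreated control.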

[3] = system: HTT mRNA; assay: Gene panel canonical junction qPCR assay, HTT CJ mRNA decrease; assay type: cell-based, human; settings: Homo sapiens, canonical junction qPCR, read-out: HTT IC50 (decrease in CJ mRNA levels)
Summary of the method: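 A673 or K562 cells were treated with compound, and lysates underwent cDNA synthesis and qPCR with a CY5 5′-nuclease probe or primer spanning the canonical exon junction. ΔCt versus GAPDH, GUSB or PPIA was normalized to DMSO (2^(−ΔΔCt)), converted to percentage response and fitted four-parameter logistic for IC50.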

[4] = system: K562 cells; assay: Cell Titer Glo 2.0 cell viability assay in K562 cells; settings: 72 hours
Procedure: Compounds described herein were screened for toxicity in K562 (human chronic myelogenous leukemia) and SH-SY5Y (human neuroblastoma) cells using a Cell Titer Glo 2.0 assay.
Cells were plated at 500 cells/well (K562 cells) in 45 μL of IMDM supplemented with 10% FBS in a 384-well opaque plate. Wells containing only medium were used as a blank control. Test compounds (e.g., compounds of Formula (I), (II), or (III)) were first serially diluted in DMSO then diluted 1:100 with IMDM+10% FBS. The final concentration of DMSO was 0.1% in each well. The cells were incubated for 72 hours at 37° C. and 5% CO2 before assaying with Cell Titer Glo 2.0 reagent.

IC50 [1] | IC50 [2] | IC50 [3] | Structure (SMILES) | Viability [4]
< 0.1 µM | 0.1 to 1 µM | 0.1 to 1 µM | CCOc1cnc2c(N3C[C@@H](C)N[C@@H](C)C3)ccc(C(=O)Nc3cc(F)c4nc(C)cn4c3)c2n1 [Compound 296] | B (B represents 100-1000 nM)
0.1 to 1 µM | > 10 µM | > 10 µM | Cc1cn2cc(NC(=O)c3ccc(N4CCNCC4)c4ccnnc34)ncc2n1 [Compound 120] | C (C represents 1000-9999 nM)
0.1 to 1 µM | 1 to 10 µM | 1 to 10 µM | Cc1cn2cc(NC(=O)c3ccc([C@H]4CCNC4)c4nccnc34)cc(F)c2n1 [Compound 246] | B (B represents 100-1000 nM)
< 0.1 µM | 1 to 10 µM | 0.1 to 1 µM | COc1nc(NC(=O)c2ccc(N3C[C@@H](C)N[C@@H](C)C3)c3nccnc23)cn2cc(C)nc12 [Compound 277] | B (B represents 100-1000 nM)
0.1 to 1 µM | 1 to 10 µM | 0.1 to 1 µM | CCN1CCN(c2ccc(C(=O)Nc3cc(F)c4nc(C)cn4c3)c3nccnc23)CC12CC2 [Compound 365] | B (B represents 100-1000 nM)
< 0.1 µM | 1 to 10 µM | 1 to 10 µM | CN[C@H]1CCN(c2ccc(C(=O)Nc3cc(F)c4nc(C)cn4c3)c3nnccc23)C1 [Compound 239, (S)—N-(8-fluoro-2-methylimidazo[1,2-a]pyridin-6-yl)-5-(3-(methylamino)pyrrolidin-1-yl)cinnoline-8-carboxamide] | B (B represents 100-1000 nM)
1 to 10 µM | > 10 µM | > 10 µM | C[C@@H]1CN(c2ccc(C(=O)Nc3cc(F)c4ncccc4c3)c3nccnc23)C[C@H](C)N1 [Compound 344] | C (C represents 1000-9999 nM)
0.1 to 1 µM | > 10 µM | 1 to 10 µM | Cc1cn2cc(NC(=O)c3ccc(N4C[C@@H](C)N[C@@H](C)C4)c4cccnc34)cc(F)c2n1 [Compound 340] | B (B represents 100-1000 nM)
1 to 10 µM | 1 to 10 µM | 1 to 10 µM | Cc1cn2nc(NC(=O)c3ccc(C4CCNCC4)c4ccnnc34)cc(C)c2n1 [Compound 113] | –
1 to 10 µM | 1 to 10 µM | 1 to 10 µM | C[C@@H]1CN(c2ccc(C(=O)Nc3cc(F)c4cnccc4c3)c3nccnc23)C[C@H](C)N1 [Compound 343] | C (C represents 1000-9999 nM)
< 0.1 µM | 1 to 10 µM | 1 to 10 µM | CNC1CCN(c2ccc(C(=O)Nc3cc(F)c4nc(C)cn4c3)c3nc(OCCOC)ccc23)C1 (stereo not shown) [Compound 234] | B (B represents 100-1000 nM)
0.1 to 1 µM | 0.1 to 1 µM | 0.1 to 1 µM | COc1cc2c(N3C[C@@H](C)N[C@@H](C)C3)ccc(C(=O)Nc3cc(F)c4nc(C)cn4c3)c2nn1 [Compound 273, 5-[(3R,5S)-3,5-dimethylpiperazin-1-yl]-N-{8-fluoro-2-methylimidazo[1,2-a]pyridin-6-yl}-3-methoxycinnoline-8-carboxamide] | B (B represents 100-1000 nM)
> 10 µM | > 10 µM | > 10 µM | Cn1cc2c(F)cc(NC(=O)c3ccc(N4CCNCC4)c4ccnnc34)cc2n1 [Compound 116] | C (C represents 1000-9999 nM)
0.1 to 1 µM | 1 to 10 µM | 1 to 10 µM | COc1nc(NC(=O)c2ccc(N3C[C@@H](C)N[C@@H](C)C3)c3nccnc23)cc2cn(C)nc12 [Compound 352] | B (B represents 100-1000 nM)
0.1 to 1 µM | > 10 µM | > 10 µM | Cc1cn2cc(NC(=O)c3ccc(N4C[C@@H](C5CC5)N[C@@H](C)C4)c4nccnc34)cc(F)c2n1 [Compound 267, 8-((3R,5S)-3-cyclopropyl-5-methylpiperazin-1-yl)-N-(8-fluoro-2-methylimidazo[1,2-a]pyridin-6-yl)quinoxaline-5-carboxamide] | B (B represents 100-1000 nM)
0.1 to 1 µM | > 10 µM | 1 to 10 µM | Cc1cn2cc(NC(=O)c3ccc(N4C[C@@H](C)N[C@@H](C)C4)c4ncc(OC5CC5)nc34)cc(F)c2n1 [Compound 351] | B (B represents 100-1000 nM)
< 0.1 µM | 1 to 10 µM | 1 to 10 µM | Cc1cn2cc(NC(=O)c3ccc(N4CCNC5(CCC5)C4)c4nccnc34)cc(F)c2n1 [Compound 363] | A (A represents <100 nM)

IC50 [1] | IC50 [2] | IC50 [3] | Structure (SMILES) | Viability [4]
0.1 to 1 µM | 0.1 to 1 µM | 0.1 to 1 µM | Cc1cn2nc(NC(=O)c3ccc(N4C[C@@H](C)N[C@@H](C)C4)c4nccnc34)cc2c(C)n1 [Compound 354] | B (B represents 100-1000 nM)
> 10 µM | > 10 µM | > 10 µM | Cc1cn2cc(NC(=O)c3ccc(N4C[C@@H](C)N[C@@H](C)C4)c4ncccc34)cc(F)c2n1 [Compound 358] | D (D represents greater than 10 μM in K562 cells)
0.1 to 1 µM | 1 to 10 µM | > 10 µM | Cc1cn2cc(NC(=O)c3ccc(N4CCN[C@@H](C5CC5)C4)c4nccnc34)cc(F)c2n1 [Compound 252, 8-[(3S)-3-cyclopropylpiperazin-1-yl]-N-{8-fluoro-2-methylimidazo[1,2-a]pyridin-6-yl}quinoxaline-5-carboxamide] | B (B represents 100-1000 nM)
0.1 to 1 µM | 1 to 10 µM | 1 to 10 µM | Cc1cn2cc(NC(=O)c3ccc(N4CCNCC4)c4nncnc34)cc(F)c2n1 [Compound 345] | B (B represents 100-1000 nM)
< 0.1 µM | 0.1 to 1 µM | 0.1 to 1 µM | COc1cnc2c(N3CC[C@@H](N(C)C)C3)ccc(C(=O)Nc3cc(F)c4nc(C)cn4c3)c2n1 [Compound 244, 8-[(3R)-3-(dimethylamino)pyrrolidin-1-yl]-N-{8-fluoro-2-methylimidazo[1,2-a]pyridin-6-yl}-3-methoxyquinoxaline-5-carboxamide] | A (A represents <100 nM)
> 10 µM | > 10 µM | > 10 µM | COc1nc2c(F)cc(NC(=O)c3ccc(N4C[C@@H](C)N[C@@H](C)C4)c4nccnc34)cc2o1 [Compound 342] | C (C represents 1000-9999 nM)
> 10 µM | > 10 µM | > 10 µM | Cc1cn2cc(NC(=O)c3ccc(N4C[C@@H](C)N[C@@H](C)C4)c4ncc(O)nc34)cc(F)c2n1 [Compound 275] | –
1 to 10 µM | 1 to 10 µM | > 10 µM | Cc1cn2cc(NC(=O)c3ccc(N4C[C@@H](C)N[C@@H](C)C4)c4ncc(Cl)nc34)cc(F)c2n1 [Compound 281] | C (C represents 1000-9999 nM)
0.1 to 1 µM | > 10 µM | > 10 µM | Cc1cn2cc(NC(=O)c3ccc(N4CCN[C@@H](C(C)C)C4)c4nccnc34)cc(F)c2n1 [Compound 250, N-{8-fluoro-2-methylimidazo[1,2-a]pyridin-6-yl}-8-[(3S)-3-isopropylpiperazin-1-yl]quinoxaline-5-carboxamide] | B (B represents 100-1000 nM)
< 0.1 µM | 1 to 10 µM | 1 to 10 µM | Cc1cn2cc(NC(=O)c3ccc(N4C[C@@H](C)N[C@@H](C)C4)c4nccnc34)nc(C)c2n1 [Compound 288] | C (C represents 1000-9999 nM)
< 0.1 µM | 0.1 to 1 µM | 0.1 to 1 µM | COc1ncc2c(N3C[C@@H](C)N[C@@H](C)C3)ccc(C(=O)Nc3cc(F)c4nc(C)cn4c3)c2n1 [Compound 300] | –
< 0.1 µM | 1 to 10 µM | 1 to 10 µM | Cc1cn2cc(NC(=O)c3ccc(N4C[C@H](C)N[C@@H](C)C4)c4nccnc34)cc(F)c2n1 [Compound 313] | –
0.1 to 1 µM | 1 to 10 µM | 1 to 10 µM | C[C@@H]1CN(c2ccc(C(=O)Nc3cc(F)c4nn(C)cc4c3)c3nccnc23)C[C@@H](C)N1 [Compound 335] | –
< 0.1 µM | > 10 µM | > 10 µM | Cc1cn2cc(NC(=O)c3ccc(N4C[C@@H](C)N[C@@H](C)C4)c4nccnc34)nc(Cl)c2n1 [Compound 279] | –
0.1 to 1 µM | 1 to 10 µM | > 10 µM | Cc1cn2cc(NC(=O)c3ccc(N4C[C@@H](C)N(O)[C@@H](C)C4)c4nccnc34)cc(F)c2n1 [Compound 355] | –
< 0.1 µM | 1 to 10 µM | 1 to 10 µM | Cc1cn2cc(NC(=O)c3ccc(N4C[C@@H](C)N[C@H](C)C4)c4nccnc34)cc(F)c2n1 [Compound 312] | –

Structure (SMILES) | IC50 [1] | IC50 [2] | IC50 [3] | Viability [4]
Cc1cn2cc(NC(=O)c3ccc(N4C5CNCC54)c4nccnc34)cc(F)c2n1 (stereo not shown) [Compound 262, 8-{3,6-diazabicyclo[3.1.0]hexan-6-yl}-N-{8-fluoro-2-methylimidazo[1,2-a]pyridin-6-yl}quinoxaline-5-carboxamide] | 0.1 to 1 µM | 0.1 to 1 µM | 0.1 to 1 µM | –
Cc1cn2cc(NC(=O)c3ccc(C4=CCNCC4)c4nccnc34)cc(F)c2n1 [Compound 240, N-{8-fluoro-2-methylimidazo[1,2-a]pyridin-6-yl}-8-(1,2,3,6-tetrahydropyridin-4-yl)quinoxaline-5-carboxamide] | < 0.1 µM | 0.1 to 1 µM | < 0.1 µM | –

Source: patent publication US20240409536A1, “COMPOUNDS AND METHODS FOR MODULATING SPLICING” (REMIX THERAPEUTICS INC., priority 2021, published 2024)
